In US20230048678A1, “ICAN DERIVATIVES FOR ANTIFUNGAL USE” (DEBRECENI EGYETEM, priority 2019, published 2023):

Tests used:
[1] = system: commercial strain of Saccharomyces cerevisiae; assay: Staining/growth of common yeast; assay type: cell-based
From the text: (§1) As we mentioned in the Background art, studies have been carried out to successfully utilize 1-N-methylamino-5-isocyanonaphthalene (MICAN) as vital cell dye on different human cell lines [Nagy Z L, 2018]. […] Since these dyes are nonpolar, they are expected to easily bind to and stain the nonpolar chitin in the cell wall of different fungi species. We tested this assumption on common yeast from a local shop, and much to our surprise after staining, the yeast cells stopped growing and died in a short time. Repeated experiments led to the same conclusion; however, the applied dye concentration was well below the LD50 determined for human cells. We assumed that these compounds may have antifungal effect, therefore C. albicans, one of the most common human pathogenic fungi was selected for further tests. HaCat cell cultures (spontaneously transformed aneuploid immortal keratinocyte cells from adult human skin) were infected with C. albicans 3666 (same isolate as used in animal experiments) and were treated with different concentrations of MICAN dissolved in DMSO. The fungal growth was followed by time lapse imaging for 24 hours. […] It should be noted, however, that in the case of the untreated HaCat cells the fungal growth exceeded 1000% (24 h) calculated from the hyphal area (FIG. 1b, DMSO control).

[2] = system: human cell cultures; assay: MTT bio assay cytotoxicity; assay type: cell-based; details: MTT bio assay technique
[3] = system: C. albicans 3666; assay: Time-lapse imaging of fungal growth in infected HaCat cultures; assay type: cell-based; details: 7.5 μg/ml, HaCat cells infected with C. albicans 3666, 24 h; DMSO control exceeded 1000%
From the text: As we mentioned in the Background art, studies have been carried out to successfully utilize 1-N-methylamino-5-isocyanonaphthalene (MICAN) as vital cell dye on different human cell lines [Nagy Z L, 2018]. […] Since these dyes are nonpolar, they are expected to easily bind to and stain the nonpolar chitin in the cell wall of different fungi species. We tested this assumption on common yeast from a local shop, and much to our surprise after staining, the yeast cells stopped growing and died in a short time. Repeated experiments led to the same conclusion; however, the applied dye concentration was well below the LD50 determined for human cells. […] It should be noted, however, that in the case of the untreated HaCat cells the fungal growth exceeded 1000% (24 h) calculated from the hyphal area (FIG. 1b, DMSO control). […]
Image analysis plug-ins were developed by a Java-based image processing software, The ImageJ v1.39d (US National Institutes of Health) program enabled the quantitative analysis of fungi. The software is requesting a set of data for the analysis from the user, along with the directory in which the bank of images to be analysed are contained. Image processing and quantitative image analysis were carried out as previously described [Nagy G, 2014]. […]

[4] = system: HaCat cells; assay: HaCat cell damage during time-lapse imaging; assay type: cell-based, human; details: under 24 hours, MICAN-treated infected cultures
From the text: as §1

[5] = system: C. parapsilosis ATCC 22019; assay: CLSI broth microdilution susceptibility (Table 1); assay type: cell-based; details: 48 h, 35° C.
Experimental: (§2) ICAN has 3 key moieties, namely the amino, naphthalene and isonitrile. To find out which ones of them are essential for the antifungal behavior and to design more efficient derivatives, comparative studies were carried out, where one of the moieties was exchanged or eliminated. All ICAN derivatives were tested against C. albicans SC5314, C. krusei ATCC 6258 and C. parapsilosis ATCC 22019. The antifungal agents were dissolved in 100% DMSO and diluted further in RPMI-1640 (with L-glutamine but without bicarbonate) and buffered to pH 7.0 with 0.165 M morpholinopropanesulfonic acid (MOPS). MICs were read visually after 48-h incubation at 35° C. using the partial (50%) inhibition (for ICAN derivatives) (PI) and total inhibition (for AMB and ICAN derivatives) (TI) criteria. MICs were determined at least twice.
(§3) The tested C. albicans, C. tropicalis, C. parapsilosis, C. glabrata and C. krusei ATCC strains and clinical isolates are listed in Table 2. MICs were determined according to the CLSI M27-A3 [22]. Antifungal agents were dissolved in 100% DMSO and diluted further in RPMI-1640 (with L-glutamine but without bicarbonate) (Sigma, Budapest, Hungary), and buffered to pH 7.0 with 0.165 M morpholinopropanesulfonic acid (MOPS; Sigma, Budapest, Hungary). The final concentration ranges used for AMB and ICAN derivatives were 0.125 to 4 μg/ml and 0.04 to 20 μg/ml, respectively. Yeast cell suspensions were prepared in RPMI 1640 medium and were adjusted to give a final inoculum concentration of 0.5×10^3 to 2.5×10^3 cells/ml. MICs were read visually after 48-h incubation at 35° C. using the partial (50%) inhibition (for ICAN derivatives) (PI) and total inhibition (for AMB and ICAN derivatives) (TI) criteria. MICs were determined at least twice. For amphotericin B isolates with MIC values of ≤2 mg/L were considered wild-types. [Pfaller M A, 2012]

[6] = system: C. krusei ATCC 6258; assay: CLSI broth microdilution susceptibility (Table 1); assay type: cell-based; details: 48 h, 35° C.
Experimental: as §2, §3

[7] = system: C. albicans SC5314; assay: CLSI broth microdilution susceptibility (Table 1); assay type: cell-based; details: 48 h, 35° C.
Experimental: as §2, §3

[8] = system: C. albicans SC5314, C. krusei ATCC 6258 and C. parapsilosis ATCC 22019; assay: CLSI broth microdilution, MIC summarised over the three Candida test strains; assay type: cell-based; details: value or range over the three Candida strains of Table 1, total inhibition
Experimental: as §2, §3

SMILES: [C-]#[N+]c1cccc2c(NC)cccc12 [MICAN, N-methyl-1-amino-5-isocyanonaphthalene]
- antifungal effect on yeast [1]: effective
- LD50 [2]: 18 µg/mL
- fungal growth calculated from the hyphal area [3]: ~30%
- damage of treated HaCat cells [4]: no sign of damage
- MICPI ([5]; partial (50%) inhibition): 0.15 µg/mL
- MICTI ([5]; total inhibition): 0.75 µg/mL
- MICPI ([6]; partial (50%) inhibition): 0.15 µg/mL
- MICTI ([6]; total inhibition): 1.25 µg/mL
- MICPI ([7]; partial (50%) inhibition): 0.3 µg/mL
- MICTI ([7]; total inhibition): 1.25 µg/mL
- MICTI [8]: 0.75 to 1.25 µg/mL
